Data taken from patent US7139665B2, “Computational method for designing enzymes for incorporation of non natural amino acids into proteins” (California Institute of Technology, priority 2002, dated 2006).
Entries after “also recorded” stand apart in the source; their conditions may differ.

Assays:
ePheRS** = molecular target: T1, ePheRS** (Escherichia coli, UniProt P08312, A294G/T251G); type: cell-based
T1 construct: expressed in transfected cells; host or cells: E. coli AF-IQ[pQE-FS**]
Description: The capacity of 2 to support protein synthesis in each expression system was determined by induction of mDHFR expression in phenylalanine-free minimal media supplemented with 2.
(§1) The AF strain was transformed with repressor plasmid pLysS-IQ and with pQE15, pQE-FS* or pQE-FS** to generate expression strains AF-IQ[pQE15], AF-IQ[pQE-FS*] or AF-IQ[pQE-FS**], respectively.
Small scale (10 ml) cultures were used to investigate the in vivo translational activity of 2 (p-AcetylPhe). M9 minimal medium (50 ml) supplemented with 0.2% glucose, 1 mg/L thiamine, 1 mM MgSO4, 1 mM CaCl2, 19 amino acids (at 20 mg/L), antibiotics (ampicillin 200 mg/L, chloramphenicol 35 mg/L) and phenylalanine (at 20 mg/L) was inoculated with 1 ml of an overnight culture of the expression strain. When the optical density at 600 nm reached 0.8–1.0, a medium shift was performed. Cells were sedimented by centrifugation for 15 min at 3,100 g at 4° C., the supernatant was removed and the cell pellets were washed twice with 0.9% NaCl. Cells were resuspended in supplemented M9 medium containing either: (a) 250 mg/L of p-AcetylPhe 2, (b) 20 mg/L phe (1) (positive control), or (c) no phe or analog (negative control). Protein expression was induced 10 min after the medium shift by addition of isopropyl-β-D-thiogalactoside (IPTG) to a final concentration of 1 mM. Cells were cultured for 4 hours post-induction and protein expression was monitored by SDS polyacrylamide gel electrophoresis (PAGE, 12%), using a normalized OD600 of 0.2 per sample.

ePheRS* [1] = molecular target: T2, ePheRS* (Escherichia coli, UniProt P08312, A294G); assay: In vivo translational activity: mDHFR expression in E. coli AF-IQ[pQE-FS*] over-expressing ePheRS* (Ala294Gly); type: cell-based; details: ePheRS* over-expressed, Phe-depleted media supplemented with 2 (250 mg/L), versus background (-phe)
T2 construct: expressed in transfected cells; host or cells: E. coli AF-IQ[pQE-FS*]
Description: (§2) AF-IQ, a phenylalanine auxotrophic E. coli strain carrying the repressor plasmid pLysS-IQ,^4 was transformed with pQE15, pQE-FS*, or pQE-FS** to generate expression systems AF-IQ[pQE15], AF-IQ[pQE-FS*], and AF-IQ[pQE-FS**], respectively. The capacity of 2 to support protein synthesis in each expression system was determined by induction of mDHFR expression in phenylalanine-free minimal media supplemented with 2.
A phenylalanine auxotrophic derivative of E. coli strain BL21(DE3), designed AF (HsdS gal (χcIts857 ind I Dam5 lacUV5-T7 gene 1) pheA) and constructed in our laboratory, was used as the expression host. The AF strain was transformed with repressor plasmid pLysS-IQ and with pQE15, pQE-FS* or pQE-FS** to generate expression strains AF-IQ[pQE15], AF-IQ[pQE-FS*] or AF-IQ[pQE-FS**], respectively.
Small scale (10 ml) cultures were used to investigate the in vivo translational activity of 2 (p-AcetylPhe). M9 minimal medium (50 ml) supplemented with 0.2% glucose, 1 mg/L thiamine, 1 mM MgSO4, 1 mM CaCl2, 19 amino acids (at 20 mg/L), antibiotics (ampicillin 200 mg/L, chloramphenicol 35 mg/L) and phenylalanine (at 20 mg/L) was inoculated with 1 ml of an overnight culture of the expression strain. […] Cells were cultured for 4 hours post-induction and protein expression was monitored by SDS polyacrylamide gel electrophoresis (PAGE, 12%), using a normalized OD600 of 0.2 per sample.

ePheRS = molecular target: T3, ePheRS (Escherichia coli, UniProt P08312); assay: In vivo translational activity: mDHFR expression in Phe-auxotrophic E. coli AF-IQ[pQE15] (no mutant synthetase); type: cell-based; details: phenylalanine-free minimal media supplemented with 2 (250 mg/L), 4 hr post-induction, versus background (-phe)
T3 construct: endogenous in cells; host or cells: E. coli AF-IQ[pQE15]; (Phe-auxotrophic BL21(DE3) derivative)
Description: as §2, §1
Small scale (10 ml) cultures were used to investigate the in vivo translational activity of 2 (p-AcetylPhe). M9 minimal medium (50 ml) supplemented with 0.2% glucose, 1 mg/L thiamine, 1 mM MgSO4, 1 mM CaCl2, 19 amino acids (at 20 mg/L), antibiotics (ampicillin 200 mg/L, chloramphenicol 35 mg/L) and phenylalanine (at 20 mg/L) was inoculated with 1 ml of an overnight culture of the expression strain. When the optical density at 600 nm reached 0.8–1.0, a medium shift was performed. […] Cells were cultured for 4 hours post-induction and protein expression was monitored by SDS polyacrylamide gel electrophoresis (PAGE, 12%), using a normalized OD600 of 0.2 per sample.

ePheRS* [2] = molecular target: T2, ePheRS*; details: over-expression of ePheRS*; earlier work; cited from earlier work

T2 sequence (P08312 whole entry A294G): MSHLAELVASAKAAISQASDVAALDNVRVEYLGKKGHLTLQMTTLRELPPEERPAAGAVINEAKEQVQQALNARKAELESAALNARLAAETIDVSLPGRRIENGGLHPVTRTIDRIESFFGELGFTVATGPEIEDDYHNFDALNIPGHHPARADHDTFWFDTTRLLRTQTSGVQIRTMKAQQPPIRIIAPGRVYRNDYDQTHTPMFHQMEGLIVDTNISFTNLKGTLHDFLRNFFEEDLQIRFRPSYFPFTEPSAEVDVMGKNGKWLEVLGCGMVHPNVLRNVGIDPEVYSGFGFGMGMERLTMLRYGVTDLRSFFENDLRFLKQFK
T2 sequence (P07395 whole entry, further chain): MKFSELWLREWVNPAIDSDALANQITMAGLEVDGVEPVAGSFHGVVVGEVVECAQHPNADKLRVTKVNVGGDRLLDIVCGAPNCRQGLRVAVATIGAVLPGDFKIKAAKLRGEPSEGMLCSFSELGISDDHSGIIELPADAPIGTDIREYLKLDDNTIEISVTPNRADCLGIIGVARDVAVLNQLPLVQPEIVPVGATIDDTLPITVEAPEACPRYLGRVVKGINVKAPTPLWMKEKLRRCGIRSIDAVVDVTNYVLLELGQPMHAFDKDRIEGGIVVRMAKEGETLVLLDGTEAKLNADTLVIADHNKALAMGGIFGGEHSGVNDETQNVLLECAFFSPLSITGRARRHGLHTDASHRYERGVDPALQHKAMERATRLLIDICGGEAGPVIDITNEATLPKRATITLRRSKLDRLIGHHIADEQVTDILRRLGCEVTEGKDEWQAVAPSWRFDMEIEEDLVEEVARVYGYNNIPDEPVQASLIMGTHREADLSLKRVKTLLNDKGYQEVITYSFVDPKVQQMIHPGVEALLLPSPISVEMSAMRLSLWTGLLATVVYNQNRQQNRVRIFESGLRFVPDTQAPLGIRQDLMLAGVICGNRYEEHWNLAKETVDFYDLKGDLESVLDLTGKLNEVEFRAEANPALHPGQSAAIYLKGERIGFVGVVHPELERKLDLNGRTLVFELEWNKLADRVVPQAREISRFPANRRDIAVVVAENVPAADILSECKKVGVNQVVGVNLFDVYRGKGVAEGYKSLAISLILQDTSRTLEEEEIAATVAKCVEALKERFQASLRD
T1 sequence (P08312 whole entry T251G/A294G): as the sequence (P08312 whole entry A294G) above, with T251G counted along it
T1 sequence (P07395 whole entry, further chain): as the sequence (P07395 whole entry, further chain) above
T3 sequence (P07395 whole entry): as the sequence (P07395 whole entry, further chain) above
T3 sequence (P08312 whole entry): as the sequence (P08312 whole entry A294G) above, with G294A counted along it

CC(=O)c1ccc(C[C@H](N)C(=O)O)cc1 [compound 2, p-acetylphenylalanine]
protein (mDHFR) expression, SDS-PAGE of whole cell lysates (ePheRS**; AF-IQ[pQE-FS**], phenylalanine-free minimal media supplemented with 2 (250 mg/L)): high levels of mDHFR expression | replacement of 1 by 2 in mDHFR (ePheRS**; from MALDI-TOF mass increase of mDHFR-2, mDHFR contains 9 Phe residues): approximately 80% | misincorporation of canonical amino acids (ePheRS**; media supplemented with 2): no detectable misincorporation | protein (mDHFR) expression, SDS-PAGE of whole cell lysates (ePheRS* [1]): did not produce substantial yields of protein; also recorded: neither AF-IQ[pQE15] nor AF-IQ[pQE-FS*] exhibits protein expression above background | protein (mDHFR) expression, SDS-PAGE of whole cell lysates (ePheRS): neither AF-IQ[pQE15] nor AF-IQ[pQE-FS*] exhibits protein expression above background

[N-]=[N+]=Nc1ccc(C[C@H](N)C(=O)O)cc1 [p-azidophenylalanine]
incorporation into recombinant proteins in E. coli hosts (ePheRS* [2]): efficient incorporation

N[C@@H](Cc1ccc(Br)cc1)C(=O)O [p-bromophenylalanine]
incorporation into recombinant proteins in E. coli hosts (ePheRS* [2]): efficient incorporation

N#Cc1ccc(C[C@H](N)C(=O)O)cc1 [p-cyanophenylalanine]
incorporation into recombinant proteins in E. coli hosts (ePheRS* [2]): efficient incorporation

C#Cc1ccc(C[C@H](N)C(=O)O)cc1 [p-ethynylphenylalanine]
incorporation into recombinant proteins in E. coli hosts (ePheRS* [2]): efficient incorporation

N[C@@H](Cc1ccc(I)cc1)C(=O)O [p-iodophenylalanine]
incorporation into recombinant proteins in E. coli hosts (ePheRS* [2]): efficient incorporation

N[C@@H](Cc1c[nH]c2ccccc12)C(=O)O [tryptophan]
misincorporation into protein by ePheRS** (ePheRS**; phe starvation conditions in the absence of 2): misincorporation

N[C@@H](Cc1ccc(O)cc1)C(=O)O [tyrosine]
misincorporation into protein (ePheRS**; under any conditions): not observed misincorporation
